Assay results from US8513250B2 (Laboratoire Biodim, priority 2007, dated 2013).
Where a name gives a salt, the structure may show the parent alone.

Molecular target: T1, DltA enzyme (Streptococcus agalactiae serotype III, UniProt Q8VM67)
T1 construct: His-tag (from pET100 vector) (N); made in house; host or cells: E. coli BL21 (DE3) Star
T1 sequence (Q8VM67 1-511): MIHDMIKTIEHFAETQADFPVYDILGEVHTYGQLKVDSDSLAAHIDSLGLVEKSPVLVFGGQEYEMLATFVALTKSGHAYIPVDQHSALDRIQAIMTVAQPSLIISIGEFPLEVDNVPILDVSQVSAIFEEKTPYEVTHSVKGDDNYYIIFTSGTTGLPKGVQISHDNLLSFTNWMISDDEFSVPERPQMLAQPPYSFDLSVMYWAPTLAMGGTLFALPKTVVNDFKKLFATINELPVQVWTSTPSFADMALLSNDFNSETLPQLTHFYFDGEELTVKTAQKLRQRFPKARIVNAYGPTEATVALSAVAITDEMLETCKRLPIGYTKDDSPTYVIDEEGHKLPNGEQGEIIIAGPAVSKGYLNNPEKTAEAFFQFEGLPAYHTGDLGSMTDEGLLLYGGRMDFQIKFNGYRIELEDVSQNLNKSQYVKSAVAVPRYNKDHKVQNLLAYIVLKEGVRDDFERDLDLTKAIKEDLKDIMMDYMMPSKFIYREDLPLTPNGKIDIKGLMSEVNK
Experiment: DltA HTS assays (luminescent / fluorescent), inhibition of DltA enzymatic activity in vitro
Format: biochemical, S. agalactiae
Settings: Table 1; DltA inhibition, HTS assays of method 1; read-out: IC50
From the text: The compounds effect on DltA enzyme has been based on the measure of the inhibition of DltA activity in vitro.
To this end, a recombinant protein Dlta was expressed and purified after cloning of the gene of S. agalatiae as described below:
Methods 1: DltA HTS Assays
The assay described below makes use of dithiothreitol (DTT) instead of DltC as reactive thiol in the catalyzed reaction. In fact, the inventors have shown that DTT, but also Coenzyme A and N-Acetylcysteamine are all thiols able to replace efficiently DltC. In addition, contrary to the prior art, radioactivity is not used: all the assays are based either on luminescent ATP detection, or on fluorescent AMP detection. They are easily amenable to miniaturized formats and fast readouts as required by HTS.
The assay buffer “AB” contains 50 mM Hepes pH8.0, 10 mM MgCl2, 50 mM KCl, 0.012% Triton-X100. The following components are added in a white polystyrene Costar plate up to a final volume of 30 μL: 3 μL DMSO, or inhibitor dissolved in DMSO and 27 μL DltA enzyme and DTT in AB. After 30 min of pre-incubation at room temperature, 30 μL of Substrates mix in AB are added in each well to a final volume of 60 μL. This reaction mixture is then composed of 10 nM DltA (produced in house from S. agalactiae), 0.5 mM D-Alanine (Sigma), 0.5 μM ATP (Sigma) and 1 mM DTT (Biochemika) in assay buffer. After 90 min of incubation at room temperature, 30 μL of the revelation mix are added to a final volume of 90 μL, including the following constituents at the respective final concentrations: 2 nM luciferase (Sigma), 30 μM D-luciferin (Sigma), 100 μM N-acetylcysteamine (Aldrich). Luminescence intensity is immediately measured on an Analyst-HT (Molecular Devices) and converted into inhibition percentages. For IC50 (Inhibitory Concentration 50%) determinations, the inhibitor is added at 6 to 10 different concentrations, and the related inhibitions are fitted to a classical langmuir equilibrium model using XLFIT (IDBS).
The assay buffer “AB” contains 50 mM Hepes pH8.0, 10 mM MgCl2, 50 mM KCl, 0.012% Triton-X100. The following components are added in a black polystyrene Costar plate up to a final volume of 50 μL: 5 μL DMSO, or inhibitor dissolved in DMSO and 45 μL DltA enzyme and DTT in AB. After 30 min of pre-incubation at room temperature, 50 μL of Substrates-revelation mix in AB are added in each well to a final volume of 100 μL. This reaction mixture is then composed of 5 nM DltA (produced in house from S. agalactiae), 0.5 mM D-Alanine (Sigma), 10 μM ATP (Sigma), 1 mM DTT (Biochemika), 10 nM Adenylate kinase (produced in house), 5 u/mL Pyruvate Kinase (Sigma), 50 μM phosphoenolpyruvate (Sigma), 5 u/mL Lactate deshydrogenase (Sigma) and 3 μM NADH (Sigma) in assay buffer. Fluorescence intensity of NADH (λex=360 nm, λem=520 nm) is immediately measured kinetically by a Fluostar Optima (BMG). Inhibition percentages are derived from fitted initial velocities. For IC50 determinations, the inhibitor is added at 6 to 10 different concentrations, and the related inhibitions are fitted to a classical langmuir equilibrium model using XLFIT (IDBS). FIG. 2 represents the data obtained using this method.
The capacity of compounds to inhibit DltA enzymatic activity was assessed using the DltA HTS assays described in method 1.

SMILES | IC50 [nM]
OCCCNc1nc2cc(C(F)(F)F)ccc2n2c(-c3cc(-c4ccccc4)n[nH]3)cnc12 [Example 32, 3-({1-[3-phenyl-1H-pyrazol-5-yl]-7-(trifluoromethyl)imidazo[1,2-a]quinoxalin-4-yl}amino)propan-1-ol] | 42
OCCCNc1nc2cc(C(F)(F)F)ccc2n2c(-c3cc(-c4cccnc4)n[nH]3)cnc12 [Example 33, 3-({1-[3-(3-pyridinyl)-1H-pyrazol-5-yl]-7-(trifluoromethyl)imidazo[1,2-a]quinoxalin-4-yl}amino)propan-1-ol] | 25
OCCCNc1nc2cc(C(F)(F)F)ccc2n2c(-c3cn(Cc4ccccc4)nn3)cnc12 [Example 34] | 580
OCCCNc1nc2cc(C(F)(F)F)ccc2n2c(-c3cc(O)n[nH]3)cnc12 [Example 37, 3-({1-(3-hydroxy-1H-pyrazol-5-yl)-7-(trifluoromethyl)imidazo[1,2-a]quinoxalin-4-yl}amino)propan-1-ol] | 160
OCCCNc1nc2cc(C(F)(F)F)ccc2n2c(-c3[nH]ncc3Cl)cnc12 [Example 38, 3-({1-(4-chloro-1H-pyrazol-5-yl)-7-(trifluoromethyl)imidazo[1,2-a]quinoxalin-4-yl}amino)propan-1-ol] | 13.5
Cc1cn[nH]c1-c1cnc2c(NCCCO)nc3cc(C(F)(F)F)ccc3n12 [Example 40, 3-({1-[4-methyl-1H-pyrazol-5-yl]-7-(trifluoromethyl)imidazo[1,2-a]quinoxalin-4-yl}amino)propan-1-ol] | 57
O=Cc1cnc2c(NCCCO)nc3cc(C(F)(F)F)ccc3n12 [Example 41, 4-[(3-hydroxypropyl)amino]-7-(trifluoromethyl)imidazo[1,2-a]quinoxaline-1-carbaldehyde] | 4600
OCCCNc1nc2cc(C(F)(F)F)ccc2n2c(CO)cnc12 [Example 42, 3-{[1-(hydroxymethyl)-7-(trifluoromethyl)imidazo[1,2-a]quinoxalin-4-yl]amino}propan-1-ol] | 1100
CNC(=O)NCc1cnc2c(NCCCO)nc3cc(C(F)(F)F)ccc3n12 [Example 43, 1-({4-[(3-hydroxypropyl)amino]-7-(trifluoromethyl)imidazo[1,2-a]quinoxalin-1-yl}methyl)-3-methylurea] | 1200
OCCCNc1nc2cc(C(F)(F)F)ccc2n2c(CNCc3ccccc3)cnc12 [Example 44, 3-({1-[(benzylamino)methyl]-7-(trifluoromethyl)imidazo[1,2-a]quinoxalin-4-yl}amino)propan-1-ol] | 6100
NCc1cnc2c(NCCCO)nc3cc(C(F)(F)F)ccc3n12 [Example 45, 3-{[1-(aminomethyl)-7-(trifluoromethyl)imidazo[1,2-a]quinoxalin-4-yl]amino}propan-1-ol] | 5500
OCCCNc1nc2cc(C(F)(F)F)ccc2n2c(-c3ncc[nH]3)cnc12 [Example 46, 3-{[1-(1H-imidazol-2-yl)-7-(trifluoromethyl)imidazo[1,2-a]quinoxalin-4-yl]amino}propan-1-ol] | 3500
O=C(O)c1cc(-c2cnc3c(NCCCO)nc4cc(C(F)(F)F)ccc4n23)[nH]n1 [Example 48, 5-{4-[(3-hydroxypropyl)amino]-7-(trifluoromethyl)imidazo[1,2-a]quinoxalin-1-yl}-1H-pyrazole-3-carboxylic acid] | 5000
OCCCNc1nc2cc(C(F)(F)F)ccc2n2c(-c3cc(CO)n[nH]3)cnc12 [Example 49, 3-({1-[3-(hydroxymethyl)-1H-pyrazol-5-yl]-7(trifluoromethyl)imidazo[1,2-a]quinoxalin-4-yl}amino)propan-1-ol] | 16
OCCCNc1nc2cc(C(F)(F)F)c(Br)cc2n2ccnc12 [Example 52, 3-(8-bromo-7-trifluoromethyl-imidazo[1,2-a]quinoxalin-4-ylamino)-propan-1-ol] | 8700
OCCCNc1nc2cc(C(F)(F)F)c(CNc3ccccn3)cc2n2ccnc12 [Example 53, 3-({8-[(pyridin-2-ylamino)methyl]-7-(trifluoromethyl)imidazo[1,2-a]quinoxalin-4-yl}amino)propan-1-ol] | 510
OCCCNc1nc2cc(-c3ccccc3C(F)(F)F)ccc2n2c(-c3ccn[nH]3)cnc12 [Example 54, 3-{[1-(1H-pyrazol-5-yl)-7-(2-[trifluoromethyl]phenyl)imidazo[1,2-a]quinoxalin-4-yl]amino}propan-1-ol] | 22
Cc1n[nH]c(-c2cnc3c(NCCCO)nc4cc(OC(F)(F)F)ccc4n23)n1 [Example 55] | 25
OCCCNc1nc2cc(C(F)(F)F)c(NCc3ccccc3)cc2n2ccnc12 [Example 56, 3-{[8-(benzylamino)-7-(trifluoromethyl)imidazo[1,2-a]quinoxalin-4-yl]amino}propan-1-ol] | 810
OCCCNc1nc2cc(F)c(F)cc2n2ccnc12 [Example 57, 3-[(7,8-difluoroimidazo[1,2-a]quinoxalin-4-yl)amino]propan-1-ol] | 57000
O=P(O)(O)OCCCNc1nc2cc(C(F)(F)F)ccc2n2c(-c3ccn[nH]3)cnc12 [Example 58, Phosphoric acid mono-{3-[1-(2H-pyrazol-3-yl)-7-trifluoromethyl-imidazo[1,2-a]quinoxalin-4-ylamino]-propyl}ester, disodium salt] | 19000
